According to the supplement of paper PMC9938120:

What was measured:
Assay in all cases: drug sensitivity score (DSS3, normalised partial AUC of % inhibition dose-response) (DSS (score)); higher = more sensitive (stronger inhibition of viability); extreme values may be limits of the assay
[1] = test system: FMOC25_1 (patient-derived low-grade serous ovarian cancer cells); conditions: 72 h; library: FO4B; assay format: 2D, 384-well, CellTiter-Glo
Method in brief: (§1)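 On 384-well flat clear-bottom plates carrying compounds at five concentrations across a 10,000-fold range, patient-derived ovarian cancer cells below passage 10 were incubated for 72 h at 37 °C with 5% CO2. CellTiter-Glo readout of viability was processed in Breeze. A higher drug sensitivity score, defined as the partial area under the percent-inhibition dose-response curve divided by the log of the upper asymptote, means greater sensitivity.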

[2] = test system: FMOC02_3 (patient-derived low-grade serous ovarian cancer cells); conditions: 72 h; library: FO5A; assay format: 2D, 384-well, CellTiter-Glo
Method in brief: as §1

[3] = test system: FMOC27 (patient-derived low-grade serous ovarian cancer cells); conditions: 72 h; library: FO5A; assay format: 2D, 384-well, CellTiter-Glo
Method in brief: as §1

[4] = test system: FMOC09 (patient-derived high-grade serous ovarian cancer cells); conditions: 72 h; library: FO5A; assay format: 2D, 384-well, CellTiter-Glo
Method in brief: as §1

[5] = test system: FMOC28 (patient-derived low-grade serous ovarian cancer cells); conditions: 72 h; library: FO5A; assay format: 2D, 384-well, CellTiter-Glo
Method in brief: as §1

[6] = test system: FMOC02_2 (patient-derived low-grade serous ovarian cancer cells); conditions: 72 h; library: FO5A; assay format: 2D, 384-well, CellTiter-Glo
Method in brief: as §1

[7] = test system: FMOC04 (patient-derived high-grade serous ovarian cancer cells); conditions: 72 h; library: FO5A; assay format: 2D, 384-well, CellTiter-Glo
Method in brief: as §1

[8] = test system: FMOC22 (patient-derived mucinous ovarian cancer cells); conditions: 72 h; library: FO5A; assay format: 2D, 384-well, CellTiter-Glo
Method in brief: as §1

[9] = test system: FMOC17 (patient-derived low-grade serous ovarian cancer cells); conditions: 72 h; library: FO5A; assay format: 2D, 384-well, CellTiter-Glo
Method in brief: as §1

[10] = test system: FMOC14 (patient-derived high-grade serous ovarian cancer cells); conditions: 72 h; library: FO5A; assay format: 2D, 384-well, CellTiter-Glo
Method in brief: as §1

[11] = test system: FMOC06 (patient-derived mucinous ovarian cancer cells); conditions: 72 h; library: FO5A; assay format: 2D, 384-well, CellTiter-Glo
Method in brief: as §1

[12] = test system: FMOC11 (patient-derived high-grade serous ovarian cancer cells); conditions: 72 h; library: FO5A; assay format: 2D, 384-well, CellTiter-Glo
Method in brief: as §1

[13] = test system: FMOC25_2 (patient-derived low-grade serous ovarian cancer cells); conditions: 72 h; library: FO5A; assay format: 2D, 384-well, CellTiter-Glo
Method in brief: as §1

[14] = test system: FMOC02_1 (patient-derived low-grade serous ovarian cancer cells); conditions: 72 h; library: FO5A; assay format: 2D, 384-well, CellTiter-Glo
Method in brief: as §1

[15] = test system: FMOC03 (patient-derived mucinous ovarian cancer cells); conditions: 72 h; library: FO5A; assay format: 2D, 384-well, CellTiter-Glo
Method in brief: as §1

[16] = test system: FMOC24 (patient-derived high-grade serous ovarian cancer cells); conditions: 72 h; library: FO5A; assay format: 2D, 384-well, CellTiter-Glo
Method in brief: as §1

SMILES	drug sensitivity score [1]	drug sensitivity score [2]	drug sensitivity score [3]	drug sensitivity score [4]	drug sensitivity score [5]	drug sensitivity score [6]	drug sensitivity score [7]	drug sensitivity score [8]	drug sensitivity score [9]	drug sensitivity score [10]	drug sensitivity score [11]	drug sensitivity score [12]	drug sensitivity score [13]	drug sensitivity score [14]	drug sensitivity score [15]	drug sensitivity score [16]
CCN(CC)CCNC(=O)c1c(C)[nH]c(/C=C2\C(=O)Nc3ccc(F)cc32)c1C [Sunitinib]	0	0.6	0	0	0	0.9	0	0	0.1	0	0	0	0.5	2.3	0	0
CC(O)(CS(=O)(=O)c1ccc(F)cc1)C(=O)Nc1ccc(C#N)c(C(F)(F)F)c1 (stereo not drawn) [Bicalutamide]	0	0	0	0	0	0	0	0	0.9	0	1.1	0	0	0.1	0	0.85
CCCc1cc(C)[nH]c(=O)c1CNC(=O)c1cc(-c2ccnc(N3CCN(C)CC3)c2)cc2c1cnn2C(C)C [GSK343]	1.6	0	0	0.1	2	0	0	0	0.3	0	0	0	0.1	0	0	0.55
C[C@@H]1CCN(C(=O)CC#N)C[C@@H]1N(C)c1ncnc2[nH]ccc12 [Tofacitinib]	0	0.1	0	0	0.7	0.7	0	0	0	0	0.7	0	0.3	0	0	0.5
CC[C@H](C)C(=O)O[C@H]1C[C@@H](C)C=C2C=C[C@H](C)[C@H](CC[C@@H]3C[C@@H](O)CC(=O)O3)[C@H]21 [Lovastatin]	0	3.9	0	3.3	0.1	0.3	0	2.1	1.1	0	0.9	1.3	1	0	0.5	2.5
C=CC(=O)Nc1cccc(Nc2nc(Nc3ccc(OCCOC)cc3)ncc2F)c1 [Spebrutinib]	0	5.7	2.2	1.5	1.6	2.9	0	0	2.3	0	0	0.9	2.9	3.1	0	0
Cc1cnc(NC(=O)Nc2cc(Br)c(C)cc2OC[C@@H]2CNCCO2)cn1 [Rabusertib]	1	0.8	0	0	0	0	1.7	0	1.1	3.8	0.2	2	2	2.2	0	3.6
C[C@@H](Oc1cc(-c2cnn(C3CCNCC3)c2)cnc1N)c1c(Cl)ccc(F)c1Cl [Crizotinib]	0	0	0	0	0	0.1	0.05	0	0	0	0	0	0.4	0.9	0	0.65
NC(=S)N/N=C/c1ncccc1N [Triapine]	3.2	1.7	2.3	0.9	5.1	3.5	0	2.4	2.2	0	1.8	1.7	6	4.2	2.4	1.15
CCCS(=O)(=O)Nc1ccc(F)c(C(=O)c2c[nH]c3ncc(-c4ccc(Cl)cc4)cc23)c1F [Vemurafenib]	1.7	1.8	0	0	2.6	1.6	0	2.5	1	1.3	0.3	1.6	1.6	3.3	3	1.65
C[C@@H]1C=C2C(=O)O[C@@H]3CC[C@H](C1)[C@]23O [Galiellalactone]	0	2.3	3.8	6.7	6.7	5.9	5.9	4.2	5.8	5.5	2.5	4	4.6	5.9	3.9	1.65
COc1cc2nccc(Oc3ccc(NC(=O)C4(C(=O)Nc5ccc(F)cc5)CC4)cc3)c2cc1OC [Cabozantinib]	0	0	0.8	0	0	0.1	0	0	0	0	0	0	0	1	0	4.45
Cc1ccc(NC(=O)c2ccc(CN3CC[C@H](N(C)C)C3)c(C(F)(F)F)c2)cc1Nc1nccc(-c2cncnc2)n1 [Bafetinib]	0	0.1	0	0	0.1	0	0	0	0	0	0	0	0	0.2	0	0
COC(=O)N[C@@H](C)CNc1nccc(-c2cn(C(C)C)nc2-c2cc(Cl)cc(NS(C)(=O)=O)c2F)n1 [Encorafenib]	0.2	0.9	0	0	0	0	0	0	0	0	0	0	3.3	4.2	0	0
O=C(Nc1cc(Cl)cc2c1[nH]c1cnccc12)c1cccnc1 [PS-1145]	3.2	7.2	0.7	1.1	3	4.6	0	0	2.3	0	0.8	0.8	2.7	2.2	0.1	2.75
CCC/C=C/C=C/C(=O)O[C@H]1/C(=C/C(=O)OC)C[C@H]2C[C@H]([C@@H](C)O)OC(=O)C[C@H](O)C[C@@H]3C[C@H](OC(C)=O)C(C)(C)[C@](O)(C[C@@H]4C/C(=C/C(=O)OC)C[C@H](/C=C/C(C)(C)[C@]1(O)O2)O4)O3 [Bryostatin 1]	6.6	4.1	0.2	0.6	0.7	1.5	0.7	2.6	0	0	6.8	2.4	7.1	6.7	0	3.45
Clc1ccc(Nc2nnc(Cc3ccncc3)c3ccccc23)cc1 [Vatalanib]	0	0	0	0	3	0.9	0	0	0	0	0	0	0.7	0.2	0.2	2.8
Cc1ncc(Cl)cc1NCc1ccc(C(=O)N[C@@H](CC2CCCC2)C(=O)NC2CC2)s1	0	7.1	1.5	0	0	0	0	0.1	0	0	0.2	0	0	0	0	2.05
Cc1ccc(-c2cc(C(F)(F)F)nn2-c2ccc(S(N)(=O)=O)cc2)cc1 [Celecoxib]	0	0	0	0	0.3	0	0	0	0	0	0	0	0	0	0	0
CCC1(c2ccc(N)cc2)CCC(=O)NC1=O (stereo not drawn) [Aminoglutethimide]	0.4	0.6	0	0	0	0.1	0	0	0.1	0	0	0	0	0	0	1.05
CC(C)Cn1cnc2c(N)nc3ccccc3c21 [Imiquimod]	0	0	0	0	0.9	0	0	0	0	0	0.5	0	0	0	0	0
CCC(C)n1ncn(-c2ccc(N3CCN(c4ccc(OCC5COC(Cn6cncn6)(c6ccc(Cl)cc6Cl)O5)cc4)CC3)cc2)c1=O (stereo not drawn) [Itraconazole]	4	6.6	0.6	0.8	4.4	3	0.1	0.2	4.8	1.3	0.7	1.2	4.6	5.3	4.5	4.9
O=C1CCC(N2C(=O)c3ccccc3C2=O)C(=O)N1 (stereo not drawn) [Thalidomide]	0	0	0.1	0	0	0	0	0	0	0	0	0	0	0	0	0
